# From US8680052B1, “Methods of treating, reducing the incidence of, and/or preventing ischemic events” (The Medicines Company, priority 2013, dated 2014)
# Like-named read-outs stand apart in the source and are kept apart here.
# Tested on: patients with acute coronary syndromes undergoing PCI
# [1] = 48-hour, MITT Without STEMI, cangrelor vs clopidogrel
# [2] = 48-hour, MITT Without STEMI, exploratory
# [3] = 48 hours, ITT With STEMI, Cangrelor vs Clopidogrel
# [4] = 48 hours, ITT Without STEMI, Cangrelor vs Clopidogrel
# [5] = 48 hours, ITT, Cangrelor vs Clopidogrel
# [6] = 48 hours, MITT With STEMI, Cangrelor vs Clopidogrel
# [7] = 48 hours, MITT Without STEMI, Cangrelor vs Clopidogrel
# [8] = 48 hours, MITT, Cangrelor vs Clopidogrel
# Protocol: Patients were eligible for enrollment if they had stable angina, unstable angina, or non-ST-segment elevation (NSTE) MI with obstructive coronary artery disease and were scheduled to undergo PCI.
# The infusion began within 30 minutes prior to PCI and continued for at least 2 hours or until the conclusion of the index procedure, whichever was longer. At the treating physician's discretion, the infusion could be continued for 4 hours.
# All patients received aspirin 75-325 mg per local site standards. Adjunctive anticoagulants (unfractionated heparin, low molecular weight heparin, bivalirudin, or fondaparinux) and the procedural use of glycoprotein IIb/IIIa inhibitors were determined by the treating physician.
# The primary efficacy endpoint was the 48-hour composite of all-cause mortality, MI, or ischemia-driven revascularization. Prespecified secondary efficacy endpoints included the composite of mortality or MI at 48 hours and 30 days; the composite of mortality, MI, or ischemia-driven revascularization at 30 days; the components of the composite endpoints at 48 hours and 30 days; stroke at 48 hours; abrupt closure, threatened abrupt closure, need for urgent coronary artery bypass grafting, or unsuccessful procedure during the index PCI; acute (24 hours) and 48 hours stent thrombosis; and all-cause mortality at 6 months and 1 year.
# Rates of MI and ischemia-driven revascularization up to 30 days following the index procedure were assessed. Ischemia-driven revascularization was defined as symptoms of myocardial ischemia leading to urgent (within 24 hours of the last episode of ischemia) revascularization, which must have occurred after the index procedure concluded (i.e., guidewire removal). New electrocardiographic changes, acute pulmonary edema, ventricular arrhythmias, or hemodynamic instability could also constitute evidence of ischemia.
# MI was defined by a new Q wave (duration >0.03 seconds) in two contiguous electrocardiographic leads or elevations in creatine kinase (CK) and CK-MB, including a rise of CK-MB≧3 times the local upper limit or normal and, when biomarkers were elevated prior to PCI, an additional 50% above baseline. One baseline troponin measurement was required for patients undergoing urgent PCI. Measurements of CK-MB were obtained at 2, 10, 17, and 24 hours post-PCI.
# The primary efficacy analysis was to be determined in the modified intent-to-treat (mITT) population, defined as all randomized patients (excluding STEMI cohort) who received at least one dose of study drug and underwent the index PCI. The safety population consisted of all randomized patients who received any study drug. Patients in the safety analyses were assigned to a treatment arm based on treatment received, not as randomized.
smiles,measurement,setting,value
"CSCCNc1nc(SCCC(F)(F)F)nc2c1ncn2[C@@H]1O[C@H](COP(=O)(O)OP(=O)(O)C(Cl)(Cl)P(=O)(O)O)[C@@H](O)[C@H]1O [Cangrelor, cangrelor]",All-cause mortality,"48-hour, MITT Without STEMI",8 (0.2)
same,IDR,"48-hour, MITT Without STEMI",13 (0.3)
same,MI,"48-hour, MITT Without STEMI",278 (7.1)
same,Mortality/MI/IDR (primary endpoint),"48-hour, MITT Without STEMI",290 (7.5)
same,Q-wave MI,"48-hour, MITT Without STEMI",4 (0.1)
same,Stent thrombosis,"48-hour, MITT Without STEMI",7 (0.2)
same,Stroke,"48-hour, MITT Without STEMI",6 (0.2)
same,OR (95% CI): All-cause mortality,[1],"1.59 (0.52, 4.87)"
same,OR (95% CI): IDR,[1],"0.56 (0.28, 1.11)"
same,OR (95% CI): MI,[1],"1.09 (0.91, 1.29)"
same,OR (95% CI): Mortality/Q-wave MI/IDR,[1],"0.67 (0.39, 1.14)"
same,OR (95% CI): Mortality/Q-wave MI/Stent thrombosis,[1],"0.78 (0.42, 1.44)"
same,OR (95% CI): Q-wave MI,[1],"0.40 (0.12, 1.27)"
same,OR (95% CI): Stent thrombosis,[1],"0.63 (0.25, 1.63)"
same,OR (95% CI): Stroke,[1],"0.85 (0.29, 2.54)"
same,Mortality/Q-wave MI/IDR,[2],23 (0.6)
same,Mortality/Q-wave MI/Stent thrombosis,[2],18 (0.5)
same,All-cause mortality,"48 hours, ITT",9 (0.2) no. (%)
same,IDR,"48 hours, ITT",21 (0.5) no. (%)
same,MI,"48 hours, ITT",294 (6.7) no. (%)
same,Mortality/MI/IDR,"48 hours, ITT",312 (7.1) no. (%)
same,Mortality/Q-wave MI/IDR,"48 hours, ITT",32 (0.7) no. (%)
same,Mortality/Q-wave MI/Stent thrombosis,"48 hours, ITT",23 (0.5) no. (%)
same,Q-wave MI,"48 hours, ITT",4 (0.1) no. (%)
same,Stent thrombosis,"48 hours, ITT",11 (0.2) no. (%)
same,Stroke,"48 hours, ITT",6 (0.1) no. (%)
same,All-cause mortality,"48 hours, ITT With STEMI",1 (0.2) no. (%)
same,IDR,"48 hours, ITT With STEMI",6 (1.2) no. (%)
same,MI,"48 hours, ITT With STEMI",16 (3.3) no. (%)
same,Mortality/MI/IDR,"48 hours, ITT With STEMI",20 (4.1) no. (%)
same,Mortality/Q-wave MI/IDR,"48 hours, ITT With STEMI",7 (1.5) no. (%)
same,Mortality/Q-wave MI/Stent thrombosis,"48 hours, ITT With STEMI",5 (1.0) no. (%)
same,Q-wave MI,"48 hours, ITT With STEMI",0 (0.0) no. (%)
same,Stent thrombosis,"48 hours, ITT With STEMI",4 (0.8) no. (%)
same,Stroke,"48 hours, ITT With STEMI",0 (0.0) no. (%)
same,All-cause mortality OR (95% CI),[3],"0.209 (0.024, 1.793)"
same,IDR OR (95% CI),[3],"0.786 (0.271, 2.283)"
same,MI OR (95% CI),[3],"1.900 (0.831, 4.341)"
same,Mortality/MI/IDR OR (95% CI),[3],"1.054 (0.560, 1.985)"
same,Mortality/Q-wave MI/IDR OR (95% CI),[3],"0.560 (0.222, 1.416)"
same,Mortality/Q-wave MI/Stent thrombosis OR (95% CI),[3],"0.580 (0.193, 1.743)"
same,Stent thrombosis OR (95% CI),[3],"1.052 (0.262, 4.321)"
same,All-cause mortality,"48 hours, ITT Without STEMI",8 (0.2) no. (%)
same,IDR,"48 hours, ITT Without STEMI",15 (0.4) no. (%)
same,MI,"48 hours, ITT Without STEMI",278 (7.1) no. (%)
same,Mortality/MI/IDR,"48 hours, ITT Without STEMI",292 (7.4) no. (%)
same,Mortality/Q-wave MI/IDR,"48 hours, ITT Without STEMI",25 (0.6) no. (%)
same,Mortality/Q-wave MI/Stent thrombosis,"48 hours, ITT Without STEMI",18 (0.5) no. (%)
same,Q-wave MI,"48 hours, ITT Without STEMI",4 (0.1) no. (%)
same,Stent thrombosis,"48 hours, ITT Without STEMI",7 (0.2) no. (%)
same,Stroke,"48 hours, ITT Without STEMI",6 (0.2) no. (%)
same,All-cause mortality OR (95% CI),[4],"1.331 (0.461, 3.839)"
same,IDR OR (95% CI),[4],"0.649 (0.338, 1.246)"
same,MI OR (95% CI),[4],"1.090 (0.914, 1.299)"
same,Mortality/MI/IDR OR (95% CI),[4],"1.056 (0.890, 1.252)"
same,Mortality/Q-wave MI/IDR OR (95% CI),[4],"0.711 (0.425, 1.190)"
same,Mortality/Q-wave MI/Stent thrombosis OR (95% CI),[4],"0.747 (0.405, 1.379)"
same,Q-wave MI OR (95% CI),[4],"0.398 (0.125, 1.272)"
same,Stent thrombosis OR (95% CI),[4],"0.634 (0.246, 1.638)"
same,Stroke OR (95% CI),[4],"0.855 (0.287, 2.546)"
same,All-cause mortality OR (95% CI),[5],"0.821 (0.340, 1.983)"
same,IDR OR (95% CI),[5],"0.678 (0.389, 1.182)"
same,MI OR (95% CI),[5],"1.122 (0.945, 1.331)"
same,Mortality/MI/IDR OR (95% CI),[5],"1.058 (0.898, 1.248)"
same,Mortality/Q-wave MI/IDR OR (95% CI),[5],"0.667 (0.425, 1.045)"
same,Mortality/Q-wave MI/Stent thrombosis OR (95% CI),[5],"0.698 (0.409, 1.191)"
same,Q-wave MI OR (95% CI),[5],"0.401 (0.126, 1.279)"
same,Stent thrombosis OR (95% CI),[5],"0.735 (0.337, 1.603)"
same,Stroke OR (95% CI),[5],"0.752 (0.261, 2.170)"
same,All-cause mortality,"48 hours, MITT",9 (0.2) no. (%)
same,IDR,"48 hours, MITT",19 (0.4) no. (%)
same,MI,"48 hours, MITT",292 (6.7) no. (%)
same,Mortality/MI/IDR,"48 hours, MITT",308 (7.1) no. (%)
same,Mortality/Q-wave MI/IDR,"48 hours, MITT",30 (0.7) no. (%)
same,Mortality/Q-wave MI/Stent thrombosis,"48 hours, MITT",23 (0.5) no. (%)
same,Q-wave MI,"48 hours, MITT",4 (0.1) no. (%)
same,Stent thrombosis,"48 hours, MITT",11 (0.3) no. (%)
same,Stroke,"48 hours, MITT",6 (0.1) no. (%)
same,All-cause mortality,"48 hours, MITT With STEMI",1 (0.2) no. (%)
same,IDR,"48 hours, MITT With STEMI",6 (1.3) no. (%)
same,MI,"48 hours, MITT With STEMI",14 (3.1) no. (%)
same,Mortality/MI/IDR,"48 hours, MITT With STEMI",18 (4.0) no. (%)
same,Mortality/Q-wave MI/IDR,"48 hours, MITT With STEMI",7 (1.6) no. (%)
same,Mortality/Q-wave MI/Stent thrombosis,"48 hours, MITT With STEMI",5 (1.1) no. (%)
same,Q-wave MI,"48 hours, MITT With STEMI",0 (0.0) no. (%)
same,Stent thrombosis,"48 hours, MITT With STEMI",4 (0.9) no. (%)
same,Stroke,"48 hours, MITT With STEMI",0 (0.0) no. (%)
same,All-cause mortality OR (95% CI),[6],"0.249 (0.028, 2.235)"
same,IDR OR (95% CI),[6],"0.857 (0.286, 2.571)"
same,MI OR (95% CI),[6],"1.778 (0.739, 4.282)"
same,Mortality/MI/IDR OR (95% CI),[6],"1.064 (0.541, 2.092)"
same,Mortality/Q-wave MI/IDR OR (95% CI),[6],"0.632 (0.243, 1.645)"
same,Mortality/Q-wave MI/Stent thrombosis OR (95% CI),[6],"0.622 (0.202, 1.917)"
same,Stent thrombosis OR (95% CI),[6],"1.002 (0.249, 4.033)"
same,All-cause mortality,"48 hours, MITT Without STEMI",8 (0.2) no. (%)
same,IDR,"48 hours, MITT Without STEMI",13 (0.3) no. (%)
same,MI,"48 hours, MITT Without STEMI",278 (7.1) no. (%)
same,Mortality/MI/IDR (Prespecified primary endpoint),"48 hours, MITT Without STEMI",290 (7.5) no. (%)
same,Mortality/Q-wave MI/IDR,"48 hours, MITT Without STEMI",23 (0.6) no. (%)
same,Mortality/Q-wave MI/Stent thrombosis,"48 hours, MITT Without STEMI",18 (0.5) no. (%)
same,Q-wave MI,"48 hours, MITT Without STEMI",4 (0.1) no. (%)
same,Stent thrombosis,"48 hours, MITT Without STEMI",7 (0.2) no. (%)
same,Stroke,"48 hours, MITT Without STEMI",6 (0.2) no. (%)
same,"primary composite of all-cause mortality, MI, or ischemia-driven revascularization","48 hours, MITT Without STEMI",7.5%
same,All-cause mortality OR (95% CI),[7],"1.591 (0.520, 4.869)"
same,IDR OR (95% CI),[7],"0.560 (0.283, 1.108)"
same,MI OR (95% CI),[7],"1.085 (0.910, 1.294)"
same,Mortality/MI/IDR (Prespecified primary endpoint) OR (95% CI),[7],"1.048 (0.883, 1.243)"
same,Mortality/Q-wave MI/IDR OR (95% CI),[7],"0.670 (0.394, 1.140)"
same,Mortality/Q-wave MI/Stent thrombosis OR (95% CI),[7],"0.777 (0.419, 1.442)"
same,Q-wave MI OR (95% CI),[7],"0.397 (0.124, 1.267)"
same,Stent thrombosis OR (95% CI),[7],"0.632 (0.245, 1.631)"
same,Stroke OR (95% CI),[7],"0.852 (0.286, 2.536)"
same,All-cause mortality OR (95% CI),[8],"0.995 (0.394, 2.508)"
same,IDR OR (95% CI),[8],"0.628 (0.353, 1.118)"
same,MI OR (95% CI),[8],"1.107 (0.932, 1.315)"
same,Mortality/MI/IDR OR (95% CI),[8],"1.049 (0.889, 1.238)"
same,Mortality/Q-wave MI/IDR OR (95% CI),[8],"0.661 (0.416, 1.051)"
same,Mortality/Q-wave MI/Stent thrombosis OR (95% CI),[8],"0.737 (0.429, 1.265)"
same,Q-wave MI OR (95% CI),[8],"0.397 (0.125, 1.268)"
same,Stent thrombosis OR (95% CI),[8],"0.729 (0.334, 1.588)"
same,Stroke OR (95% CI),[8],"0.852 (0.286, 2.538)"
same,All-cause mortality,"48 hours, Safety population",9 (0.2) no. (%)
same,IDR,"48 hours, Safety population",19 (0.4) no. (%)
same,MI,"48 hours, Safety population",294 (6.7) no. (%)
same,Mortality/MI/IDR,"48 hours, Safety population",310 (7.1) no. (%)
same,Mortality/Q-wave MI/IDR,"48 hours, Safety population",30 (0.7) no. (%)
same,Mortality/Q-wave MI/Stent thrombosis,"48 hours, Safety population",23 (0.5) no. (%)
same,Q-wave MI,"48 hours, Safety population",4 (0.1) no. (%)
same,Stent thrombosis,"48 hours, Safety population",11 (0.3) no. (%)
same,Stroke,"48 hours, Safety population",6 (0.1) no. (%)
same,All-cause mortality,"30 days, ITT",40 (0.9) no. (%)
same,IDR,"30 days, ITT",62 (1.4) no. (%)
same,MI,"30 days, ITT",318 (7.3) no. (%)
same,Mortality/MI/IDR,"30 days, ITT",381 (8.7) no. (%)
same,Mortality/Q-wave MI/IDR,"30 days, ITT",102 (2.3) no. (%)
same,Mortality/Q-wave MI/Stent thrombosis,"30 days, ITT",68 (1.6) no. (%)
same,Q-wave MI,"30 days, ITT",9 (0.2) no. (%)
